One data set addresses T1, Jack bean urease (Canavalia ensiformis, UniProt P07374).
T1 construct: purchased Sigma Aldrich
Nature of the data set: biochemical. In kind it is biochemical.

A further data set deals with T2, urease (Canavalia ensiformis, UniProt P07374).
T2 construct: purchased Sigma Aldrich
Nature of the data set: Enzyme kinetics study (Michaelis-Menten, Lineweaver-Burk) of urease inhibition. Particulars: urea substrate 0.5-2.0 mM, inhibitor 0, 1.5, 3.0, 4.5 μM, Lineweaver-Burk plot. In kind it is biochemical, Jack bean. The procedure: The type of enzyme inhibition was determined by Michaelis-Menten kinetics experiments. In order to investigate the potential mechanism of action of the potent compound 2c, detailed kinetics studies were conducted. The initial inhibitory efficacy rates of enzyme activity were measured at four different concentrations of substrate (0.5, 1.0, 1.5 and 2.0 mM) in the presence or absence of compound 2c (0, 1.5, 3.0, 4.5 μM) against urease.
Kinetics studies were performed to determine the mode of action of compound 2c. The mechanism of inhibition of urease was determined by enzyme kinetics using urea as a substrate. To determine the type of inhibition, analyze the effect of inhibitor on Vmax and Km, a Lineweaver-Burk plot (reciprocal of reaction rates […] and reciprocal of substrate concentrations […]) was used.
Different concentrations of inhibitor 2c and substrate were used to perform kinetics. Four concentrations (0, 1.5, 3.0, 4.5 μM) of inhibitor 2c and four concentrations (0.5, 1.0, 1.5 and 2.0 mM) of substrate were used.

For data set [1], the system named is H. pylori. Nature of the data set: MIC against H. pylori, agar dilution method. The class given is cell-based, Helicobacter pylori. The conditions noted are these: Helicobacter pylori, ATCC43504; H. pylori ATCC 43504, agar dilution; read-out: MIC value against H. pylori ± SEM.
In data set [2] the test system is H. pylori. Nature of the data set: IC50 against H. pylori, micro broth dilution test. In kind it is cell-based, Helicobacter pylori. Particulars: Helicobacter pylori, ATCC43504; H. pylori ATCC 43504, micro broth dilution, 72 h, OD 600 nm; read-out: IC50 value against H. pylori ± SEM.

Values after ≈ are worked out from the molar mass of the structure shown. “Also recorded” adds a separate entry of the source.

T2 sequence (P07374 whole entry, looked up): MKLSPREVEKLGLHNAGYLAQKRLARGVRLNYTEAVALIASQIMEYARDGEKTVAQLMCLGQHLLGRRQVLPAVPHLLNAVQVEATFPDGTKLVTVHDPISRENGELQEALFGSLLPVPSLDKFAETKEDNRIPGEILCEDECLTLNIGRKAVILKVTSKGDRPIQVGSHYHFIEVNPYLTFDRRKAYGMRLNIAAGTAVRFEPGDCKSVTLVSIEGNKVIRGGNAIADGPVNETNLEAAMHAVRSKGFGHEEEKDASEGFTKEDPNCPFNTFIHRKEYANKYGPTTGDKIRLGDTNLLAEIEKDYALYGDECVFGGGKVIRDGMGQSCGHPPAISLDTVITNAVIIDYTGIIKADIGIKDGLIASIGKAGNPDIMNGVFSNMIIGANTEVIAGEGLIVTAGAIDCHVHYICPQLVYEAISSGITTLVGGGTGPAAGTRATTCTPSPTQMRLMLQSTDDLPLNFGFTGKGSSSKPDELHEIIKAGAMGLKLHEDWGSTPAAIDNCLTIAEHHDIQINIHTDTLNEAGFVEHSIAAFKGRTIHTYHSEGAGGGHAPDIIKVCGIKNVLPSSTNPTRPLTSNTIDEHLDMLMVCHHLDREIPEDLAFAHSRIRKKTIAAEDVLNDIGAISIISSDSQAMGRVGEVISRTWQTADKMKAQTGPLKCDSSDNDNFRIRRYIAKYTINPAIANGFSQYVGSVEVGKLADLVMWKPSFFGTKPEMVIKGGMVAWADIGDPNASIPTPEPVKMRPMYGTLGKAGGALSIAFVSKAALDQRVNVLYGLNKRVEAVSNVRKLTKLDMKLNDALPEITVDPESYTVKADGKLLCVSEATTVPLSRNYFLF
T1 sequence (P07374 whole entry, looked up): as above

With `CCCS(=O)(=O)Oc1cccc(-c2nc3sccn3c2-c2cccc(S(C)(=O)=O)c2)c1` [Compound 2c, 3-(5-(3-(Methylsulfonyl)phenyl)imidazo[2,1-b]thiazol-6-yl)phenyl propane-1-sulfonate], the melting point lay in the range of 188 to 191 °C. The same compound displayed a concentration for half-maximal inhibition (IC50) against Jack bean urease of 2.94 ± 0.05 µM. The “fold more potent than thiourea positive control (urease inhibition)” value at Jack bean urease (ratio of IC50 vs thiourea) is 8 fold. The “type of urease inhibition” value on urease is listed as “competitive inhibition; also recorded: competitive inhibitor”. In addition, the minimal inhibitory concentration (MIC) in the data set on H. pylori [1] is 800 µM (≈ 381 µg/mL). Also, in the data set with H. pylori [2], the IC50 was 281 ± 21 µM.

As usually defined, the IC50 is the concentration at which inhibition is half-maximal. Broadly, the MIC is the lowest concentration found to suppress growth. In general, melting point refers to the temperature, or range, at which the solid turns liquid.

(Values after paper PMC10237672, “Design and synthesis of novel anti-urease imidazothiazole derivatives with promising antibacterial activity against Helicobacter pylori” (PLOS ONE, 2023).)
